Converted amounts (≈) assume the structure as drawn.
Legend:
[1] = biological target: T1, human soluble guanylate cyclase alpha 1 and beta 1 subunits (sGC) stably expressed in Chinese hamster ovary cells (Homo sapiens, UniProt Q02108+Q02153); assay: sGC cellular activator assay: cGMP in CHO cells expressing human sGC, preincubated with ODQ; assay type: cell-based; conditions: 40 microM ODQ preincubation, 30 min at room temperature, presence or absence of 50% human serum not given, read-out: EC50 nM, Activity of Compounds in Cellular Assay
T1 construct: expressed in transfected cells; host or cells: Chinese hamster ovary cells, stably transfected
T1 sequence (Q02108 1-690 partner): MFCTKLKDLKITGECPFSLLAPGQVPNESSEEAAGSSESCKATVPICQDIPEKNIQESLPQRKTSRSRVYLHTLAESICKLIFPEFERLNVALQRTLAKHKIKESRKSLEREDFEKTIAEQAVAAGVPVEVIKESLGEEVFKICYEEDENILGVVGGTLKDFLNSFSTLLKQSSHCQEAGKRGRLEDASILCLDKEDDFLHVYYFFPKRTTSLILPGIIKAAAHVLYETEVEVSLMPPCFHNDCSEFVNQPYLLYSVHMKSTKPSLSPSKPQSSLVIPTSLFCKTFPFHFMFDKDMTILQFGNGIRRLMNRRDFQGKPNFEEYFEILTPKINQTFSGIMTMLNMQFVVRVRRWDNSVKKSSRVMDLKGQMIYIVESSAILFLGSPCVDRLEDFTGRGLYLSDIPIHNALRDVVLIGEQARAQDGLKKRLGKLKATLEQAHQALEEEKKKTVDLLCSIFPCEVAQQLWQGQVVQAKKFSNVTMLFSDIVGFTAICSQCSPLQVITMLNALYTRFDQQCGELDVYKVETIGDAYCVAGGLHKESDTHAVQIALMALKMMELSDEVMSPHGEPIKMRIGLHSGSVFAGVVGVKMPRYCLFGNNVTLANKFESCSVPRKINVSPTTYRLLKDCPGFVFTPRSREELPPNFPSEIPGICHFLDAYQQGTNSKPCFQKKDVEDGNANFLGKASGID
T1 sequence (Q02153 1-619): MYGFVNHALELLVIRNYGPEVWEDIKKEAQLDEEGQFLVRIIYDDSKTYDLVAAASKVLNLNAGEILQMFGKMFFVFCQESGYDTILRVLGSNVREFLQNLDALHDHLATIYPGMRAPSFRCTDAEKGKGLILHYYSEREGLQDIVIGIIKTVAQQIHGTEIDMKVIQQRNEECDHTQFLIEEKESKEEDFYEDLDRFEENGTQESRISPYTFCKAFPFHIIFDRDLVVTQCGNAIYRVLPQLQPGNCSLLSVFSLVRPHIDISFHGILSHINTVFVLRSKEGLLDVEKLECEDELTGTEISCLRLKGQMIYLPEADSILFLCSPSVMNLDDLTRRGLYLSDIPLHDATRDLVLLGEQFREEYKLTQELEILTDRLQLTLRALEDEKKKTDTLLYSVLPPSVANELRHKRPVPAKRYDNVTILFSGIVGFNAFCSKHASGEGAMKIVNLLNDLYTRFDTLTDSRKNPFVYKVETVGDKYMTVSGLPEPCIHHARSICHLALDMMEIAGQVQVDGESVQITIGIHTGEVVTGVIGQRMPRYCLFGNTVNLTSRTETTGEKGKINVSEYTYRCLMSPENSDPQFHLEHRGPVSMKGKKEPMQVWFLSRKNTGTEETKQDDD
Method: The sGC cellular activator assay is performed in the presence and absence of 50% human serum (HS) using Chinese hamster ovary cells that have been stably transfected to express the human soluble guanylate cyclase alpha 1 and beta 1 subunits (sGC). Cells are preincubated with 40 microM 1H-[1,2,4]oxadiazolo[4,3-a]quinoxalin-1-one (ODQ), an sGC inhibitor, for one hour in buffer containing 0.1% bovine serum albumin and 3-isobutyl-1-methylxanthine (IBMX). Concentration response curves are prepared for test compounds in DMSO. An intermediate dilution of the compounds is performed in either buffer containing IBMX or type AB HS containing IBMX. Diluted compounds are added to cells and they are incubated at room temperature for thirty minutes. cGMP is measured using a CisBio homogeneous time resolved fluorescence kit and the EC50 is calculated for each compound.

[2] = Assessment of solubility: HT solubility in pION buffer, UV spectrophotometry; conditions: pION system solution buffer, kinetic from dmso stock, 16-19 h incubation, 1.0% DMSO
Method: Solubility is measured by the following method.
DMSO stock samples at 10 mM concentration are prepared. […] The samples are pierced and 100 ul of thawed samples are transferred into the PCR plate for analysis. Each sample is run in duplicate at each pH (pH 4.5 and 7.4). Up to 95 samples can be run in replicate at 2 pH's+1 DMSO (blank).
Preparation of pH 4.5 and 7.4 Buffers:
• pH 4.5 buffer:—To 12.5 of system solution (pION)qs to 500 mL of distilled water (pH 2.85-2.90); adjust the pH to pH 4.5 with 0.5 N NaOH. • pH 7.4 buffer: To 12.5 of system solution (pION)qs to 500 mL of distilled water (pH 2.85-2.90); adjust the pH to pH 7.4 with 0.5N NaOH. […] Procedure: Preparation of UV Blank Plate:
75 ul of buffer (pH 7.4 or pH 4.5) is added to UV plate followed by addition of 70 ul of N-propanol. The solution is mixed and the blank spectrum is read using spectrophotometer.
Preparation of Reference UV Plate:
10 ul of each stock sample (including DMSO control) is added to 190 ul of N-propanol to prepare the reference stock plate. Reference stock samples are mixed and 5 ul of each stock sample is added to UV blank plate after it is read spectrophotometrically. The reference stock sample is mixed with blank solution in UV plate and the reference spectrum is read using UV spectrophotometer.
Preparation of Sample for Incubation:
Solubility at pH 7.4:6 ul of each stock sample (including DMSO control) is added to the storage plate containing 600 ul of pH 7.4 buffer, mixed and incubated for 16-19 h. The plate is sealed well during the incubation process. The DMSO content in the sample is 1.0%. The concentration in deep well plates is 100 uM
6 ul of each stock sample (including DMSO control) is added to the deep well plate containing 600 ul of pH 4.5 buffer, mixed and incubated for 16-19 h. The plate is sealed well during the incubation process. The DMSO content in the sample is 1.0%. The concentration in deep well plates is 100 uM
Preparation of Sample UV Plate:
At the end of the incubation period, 100 uL of sample from the storage plate is vacuum filtered using a filter plate. This step wets the filters and the filtrate is discarded. Another 200 ul of the sample from the deep well plate is vacuum filtered using the same filter block but a clean filter plate. 75 ul of the filtrate from the filter plate is transferred to a UV sample plate. 75 ul of N-propanol is added to this UV plate. The solution is mixed and the spectrum is read using the UV spectrophotometer.
The spectra collected for blank, reference and sample from 250-498 nm is analyzed using pION software. If the sample precipitates out, the solubility is reported as XX μg/ml.

[3] = biological target: T2, Recombinant human soluble guanylate cyclase (sGC), alpha 1 / beta 1 subunits, heme-free (Homo sapiens, UniProt Q02108+Q02153); assay: Molecular assay: cGMP formation by heme-free recombinant sGC (CisBio cGMP detection kit); assay type: biochemical; conditions: 300 pM heme-free sGC, 37° C., 60 min, cGMP readout; read-out: EC50 nM, Activity of Compounds in Molecular Assay
T2 construct: histidine tag (C); made in house; host or cells: Sf9 insect cells (baculovirus coinfection)
T2 sequence (Q02108 1-690 partner): T1 sequence (Q02108 1-690 partner)
T2 sequence (Q02153 1-619): T1 sequence (Q02153 1-619)
How it was run: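 cGMP generated over 60 min at 37° C (pH 6.8 MOPS buffer, 50 nM GTP, 1.25 mM IBMX, 1% DMSO) by 300 pM heme-free sGC, expressed in Sf9 and heme-stripped with 0.5% Tween 20. HTRF ratios converted to nM cGMP; EC50 fitted from log concentration.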

[4] = pH 4.5, pH 4.5, aqueous buffer, Solubility (pH 4.5), pH 4.5 buffer
[5] = pH 7.4, pH 7.4, aqueous buffer, Solubility (pH 7.4), pH 7.4 buffer

EC50 [1]	solubility [2, 4]	solubility [2, 5]	EC50 [3]	Structure (SMILES)
36 nM	–	–	–	Cc1ccc(OCc2ccc(C(=O)N3CCCCC3)cc2C)c(-c2csc(N3CC[C@@H](C(=O)O)[C@H]3C)n2)c1 [Compound 240]
11 nM	–	–	–	Cc1ccc(OCc2ccc(C(=O)N3CCCCC3)cc2OC(F)(F)F)c(-c2csc(N3C[C@H]4CC[C@@H](C3)[C@H]4C(=O)O)n2)c1 [Compound 279]
10 nM	–	–	–	Cc1ccc(OCc2ccc(CN3CCN(C)C(=O)C3)cc2C)c(-c2csc(N3CCC(C(=O)O)CC3)n2)c1 [Compound 292]
–	> 68 µg/mL	> 68 µg/mL	1800 nM	Cc1cc(CN2CCC(C(=O)N(C)C)CC2)ccc1COc1c(C)cccc1-c1csc(N2CCC(C(=O)O)CC2)n1 [Compound 134]
–	> 53 µg/mL	> 53 µg/mL	280 nM	Cc1cc(CN2CCOCC2)ccc1COc1c(C#N)cccc1-c1csc(N2CCC(C(=O)O)CC2)n1 [Compound 35]
–	4.3 µg/mL (≈ 7.37 µM)	> 58 µg/mL	81 nM	Cc1ccc(OCc2ccc(C(=O)N3CCS(=O)(=O)CC3)cc2C)c(-c2csc(N3CCC(C(=O)O)CC3)n2)c1 [Compound 122]
150 nM	–	–	–	Cc1ccc(OCc2ccc(CN3CCOCC3)cc2C)c(-c2csc(N3CCC4CC4(C(=O)O)CC3)n2)c1 (stereo not shown) [Compound 231]
–	2.3 µg/mL (≈ 4.04 µM)	> 56 µg/mL	100 nM	Cc1cc(CN2CCS(=O)(=O)CC2)ccc1COc1ccccc1-c1csc(N2CCC(C(=O)O)CC2C)n1 (stereo not shown) [Compound 108]
–	0.15 µg/mL (≈ 0.228 µM)	> 65 µg/mL	940 nM	Cc1cc(CN2CCS(=O)(=O)CC2)ccc1COc1ccc(Cl)cc1-c1csc(N2CCC(C(=O)O)C(C(F)(F)F)C2)n1 (stereo not shown) [Compound 157]
–	> 52 µg/mL	> 52 µg/mL	200 nM	Cc1cc(CN2CCOCC2)ccc1COc1ccc(F)cc1-c1csc(N2CCC(C(=O)O)CC2)n1 [Compound 28]
–	0.3 µg/mL (≈ 0.49 µM)	> 61 µg/mL	4100 nM	Cc1cc(C(=O)N2CCCCC2)ccc1COc1ccc(C#N)cc1-c1csc(N2CCC(C(=O)O)C(C(F)(F)F)C2)n1 (stereo not shown) [Compound 148]
–	> 66 µg/mL	> 66 µg/mL	600 nM	COCCN(C)Cc1ccc(COc2ccc(C)cc2-c2csc(N3CC[C@@H](C(=O)O)[C@@H](C)C3)n2)c(C#N)c1 [Compound 75]
–	0.15 µg/mL (≈ 0.29 µM)	> 51 µg/mL	330 nM	Cc1cc(C(=O)N2CCCCC2)ccc1COc1ccccc1-c1csc(C2=CCC(C(=O)O)CC2)n1 (stereo not shown) [Compound 8]
–	0.2 µg/mL (≈ 0.331 µM)	36 µg/mL (≈ 59.6 µM)	38 nM	Cc1cc(CN2CCS(=O)(=O)CC2)ccc1COc1ccc(Cl)cc1-c1csc(N2CCC(C(=O)O)CC2C)n1 (stereo not shown) [Compound 143]
–	0.8 µg/mL (≈ 1.25 µM)	> 63 µg/mL	530 nM	Cc1ccc(OCc2ccc(CN3CCS(=O)(=O)CC3)cc2C)c(-c2csc(N3CCC(C(=O)O)C(C(F)(F)F)C3)n2)c1 (stereo not shown) [Compound 154]
–	> 56 µg/mL	> 56 µg/mL	35 nM	CC(=O)N1CCN(Cc2ccc(COc3c(C)cccc3-c3csc(N4CCC(C(=O)O)CC4)n3)c(C)c2)CC1 [Compound 95]

EC50 [1]	solubility [2, 4]	solubility [2, 5]	EC50 [3]	Structure (SMILES)
–	2 µg/mL (≈ 3.32 µM)	> 60 µg/mL	160 nM	Cc1ccc(OCc2ccc(C(=O)N3CCCCC3)cc2C)c(-c2csc(N3CCC(C(=O)O)C(C(F)(F)F)C3)n2)c1 (stereo not shown) [Compound 142]
–	0.65 µg/mL (≈ 1.14 µM)	> 56 µg/mL	71 nM	Cc1cc(CN2CCS(=O)(=O)CC2)ccc1COc1ccccc1-c1csc(N2CCC(C(=O)O)C(C)C2)n1 (stereo not shown) [Compound 107]
–	> 70 µg/mL	> 70 µg/mL	180 nM	Cc1ccc(OCc2ccc(CN3CCC(S(C)(=O)=O)CC3)cc2C)c(-c2csc(N3CCC(C(=O)O)CC3)n2)c1 [Compound 138]
–	0.25 µg/mL (≈ 0.436 µM)	> 57 µg/mL	74 nM	Cc1cc(CN2CCS(=O)(=O)CC2)ccc1COc1ccc(F)cc1-c1csc(N2CCC(C(=O)O)CC2)n1 [Compound 111]
–	> 59 µg/mL	> 59 µg/mL	510 nM	Cc1cc(CN2CCOCC2)ccc1COc1ccccc1-c1csc(N2CCC(C(=O)O)C(C)C2)n1 (stereo not shown) [Compound 24]
–	31 µg/mL (≈ 55.2 µM)	12 µg/mL (≈ 21.4 µM)	730 nM	Cc1ccc(OCc2ccc(CN(C)CC3CCCCC3)cc2C)c(-c2csc(N3CCC(C(=O)O)CC3)n2)c1 [Compound 91]
–	0.75 µg/mL (≈ 1.24 µM)	> 60 µg/mL	2000 nM	Cc1cc(CN2CCS(=O)(=O)CC2)ccc1COc1ccc(C#N)cc1-c1csc(N2CC3CCC(C2)C3C(=O)O)n1 (stereo not shown) [Compound 146]
–	41 µg/mL (≈ 78.7 µM)	> 63 µg/mL	5600 nM	COCCNCc1ccc(COc2ccc(C#N)cc2-c2csc(N3CCC(C(=O)O)CC3)n2)c(C)c1 [Compound 172]
–	44 µg/mL (≈ 81.5 µM)	> 61 µg/mL	440 nM	Cc1cc(CN2CCOCC2)ccc1COc1ccc(F)cc1-c1csc(N2CCC(C(=O)O)CC2C)n1 (stereo not shown) [Compound 61]
–	> 63 µg/mL	> 63 µg/mL	1300 nM	Cc1ccc(OCc2ccc(CNCC(C)(C)O)cc2C)c(-c2csc(N3CCC(C(=O)O)CC3)n2)c1 [Compound 25]
–	36 µg/mL (≈ 65.1 µM)	38 µg/mL (≈ 68.7 µM)	70 nM	N#Cc1cc(CN2CCOCC2)ccc1COc1c(Cl)cccc1-c1csc(N2CCC(C(=O)O)CC2)n1 [Compound 81]
–	4.7 µg/mL (≈ 8.27 µM)	13 µg/mL (≈ 22.9 µM)	690 nM	Cc1cc(CN2CCOCC2)ccc1COc1ccc(Cl)cc1-c1csc(N2CC3CCC(C2)C3C(=O)O)n1 (stereo not shown) [Compound 99]
–	0.25 µg/mL (≈ 0.44 µM)	26 µg/mL (≈ 45.8 µM)	30 nM	Cc1cc(C(=O)N2CCCCC2)ccc1COc1ccc(Cl)cc1-c1csc(N2CCC(C(=O)O)CC2C)n1 (stereo not shown) [Compound 102]
–	14 µg/mL (≈ 27 µM)	22 µg/mL (≈ 42.4 µM)	4900 nM	Cc1ccc(OCc2ccc(CN3CCOCC3)cc2C)c(-c2csc(C3=CCC(C(=O)O)CC3)n2)c1 (stereo not shown) [Compound 10]
–	> 68 µg/mL	> 68 µg/mL	400 nM	Cc1ccc(OCc2ccc(CN(C)CC3CCOCC3)cc2C#N)c(-c2csc(N3CCC(C(=O)O)CC3)n2)c1 [Compound 112]

Structure (SMILES)	EC50 [1]	solubility [2, 4]	solubility [2, 5]	EC50 [3]
Cc1cc(C(=O)N2CCCCC2)ccc1COc1ccc(Cl)cc1-c1csc(N2C3CCC2CC(C(=O)O)C3)n1 (stereo not shown) [Compound 117]	–	0.25 µg/mL (≈ 0.431 µM)	> 57 µg/mL	30 nM
Cc1ccc(OCc2ccc(C(=O)N3CCCCC3)cc2C)c(-c2csc(N3C4CCC3CC(C(=O)O)C4)n2)c1 (stereo not shown) [Compound 88]	–	0.45 µg/mL (≈ 0.804 µM)	> 55 µg/mL	15 nM

Reference: patent publication US8815857B2 (Boehringer Ingelheim International GmbH, priority 2011, dated 2014)
